Measured values from patent US20250115590A1, “MATRIX METALLOPROTEINASE (MMP) INHIBITORS AND METHODS OF USE THEREOF” (Foresee Pharmaceuticals USA, Inc., priority 2018, published 2025).
Like-named read-outs stand apart in the source and are kept apart here.

What was measured:
Type in all cases: biochemical
[1] = target: recombinant human MMP-12 catalytic domain (Homo sapiens (Human), UniProt P39900); experiment: MMP-12 inhibitory assay (fluorogenic substrate cleavage)
Procedure: (§1) The inhibitory effect of compounds on the rate of cleaving fluorogenic MMP substrate (Enzo, BML-P128) by recombinant human MMP-12 catalytic domain (Enzo, BML-SE138) was carried out by methods known in the art. Briefly, to each well of a 96-well black opaque plate, all the reagents were sequentially added by pipetting, and the final reaction contained 4 nM of recombinant human MMP-12 catalytic domain, […] of fluorogenic MMP substrate, and various concentrations (0.15 nM to 10,000 nM) of tested compound dilutions in HEPES buffer (pH 7.5) containing 10 mM of CaCl2, 0.01% Brij® 35 (polyoxyethylene (23) lauryl ether), and 0.1 mg/ml of BSA.
(§2) The enzyme and compounds were pre-incubated on a shaker to mix in wells. After an hour of mixing, fluorogenic substrate was added to each well. Reaction without enzyme was used as a blank control in the plate. The plate was then fed into a plate reader to measure fluorescence intensity at Excitation/Emission wavelengths of 340 nm/440 nm every 10 mins for at least 1 hour at 37° C. The IC50 of each compound in MMP-12 inhibition was determined by using a readout obtained at time point 30 minutes.

recombinant human MMP-7 = recombinant human MMP-7 (Homo sapiens (Human), UniProt P09237); experiment: MMP selectivity assay, MMP-7; conditions: Table 2 selectivity profile; read-out: MMP-7 Activity (IC50 class)
recombinant human MMP-7, sequence (P09237 95-267): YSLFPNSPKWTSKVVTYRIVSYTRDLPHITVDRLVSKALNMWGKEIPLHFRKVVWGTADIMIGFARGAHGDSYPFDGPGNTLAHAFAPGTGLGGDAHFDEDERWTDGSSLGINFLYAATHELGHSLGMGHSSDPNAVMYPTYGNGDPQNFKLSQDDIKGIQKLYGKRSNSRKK
Procedure: as §1
as §2, with “Reaction without enzyme was used as a blank control in the plate.” left out
(§3) The MMP selectivity assay was performed by using other recombinant human MMPs, including MMP-1, MMP-2, MMP-3, MMP-7, MMP-8, MMP-9, MMP-10, MMP-13, and MMP-14. The IC50 of the compounds for the other recombinant human MMPs was determined as described above in Example 1, and are shown in Table 2.

recombinant human MMP-8 = recombinant human MMP-8 (Homo sapiens (Human), UniProt P22894); experiment: MMP selectivity assay, MMP-8; conditions: Table 2 selectivity profile; read-out: MMP-8 Activity (IC50 class)
recombinant human MMP-8, sequence (P22894 101-467): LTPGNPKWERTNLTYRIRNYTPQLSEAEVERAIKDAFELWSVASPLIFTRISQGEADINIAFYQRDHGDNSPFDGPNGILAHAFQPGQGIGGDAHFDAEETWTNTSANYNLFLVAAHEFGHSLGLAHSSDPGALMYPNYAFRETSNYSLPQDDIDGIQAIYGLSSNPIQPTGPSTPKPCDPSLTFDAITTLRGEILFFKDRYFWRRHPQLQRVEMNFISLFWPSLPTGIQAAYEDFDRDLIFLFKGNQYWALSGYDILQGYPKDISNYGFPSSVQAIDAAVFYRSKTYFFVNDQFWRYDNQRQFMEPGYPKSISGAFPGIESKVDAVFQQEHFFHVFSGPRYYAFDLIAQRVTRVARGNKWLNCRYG
Procedure: as §1, §2, §3

recombinant human MMP-9 = recombinant human MMP-9 (Homo sapiens (Human), UniProt P14780); experiment: MMP selectivity assay, MMP-9; conditions: Table 2 selectivity profile; read-out: MMP-9 Activity (IC50 class)
recombinant human MMP-9, sequence (P14780 94-707): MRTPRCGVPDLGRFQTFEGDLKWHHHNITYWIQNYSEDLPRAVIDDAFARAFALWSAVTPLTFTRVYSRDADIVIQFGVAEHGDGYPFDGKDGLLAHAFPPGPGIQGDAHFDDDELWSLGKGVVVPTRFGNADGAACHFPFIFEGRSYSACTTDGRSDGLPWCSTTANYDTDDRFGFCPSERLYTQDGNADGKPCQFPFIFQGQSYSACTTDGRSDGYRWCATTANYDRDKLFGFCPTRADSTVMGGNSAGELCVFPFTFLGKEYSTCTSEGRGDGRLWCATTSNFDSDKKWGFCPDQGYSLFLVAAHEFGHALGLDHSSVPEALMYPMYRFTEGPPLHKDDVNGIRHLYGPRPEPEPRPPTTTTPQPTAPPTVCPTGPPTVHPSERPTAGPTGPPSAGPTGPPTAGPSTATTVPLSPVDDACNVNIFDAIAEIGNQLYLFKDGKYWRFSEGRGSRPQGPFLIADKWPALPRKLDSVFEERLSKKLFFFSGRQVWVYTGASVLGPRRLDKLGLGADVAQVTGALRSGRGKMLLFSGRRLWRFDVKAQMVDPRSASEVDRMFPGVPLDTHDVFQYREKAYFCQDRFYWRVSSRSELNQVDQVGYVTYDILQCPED
Procedure: as §1, §2, §3

recombinant human MMP-3 = recombinant human MMP-3 (Homo sapiens (Human), UniProt P08254); experiment: MMP selectivity assay, MMP-3; conditions: Table 2 selectivity profile; read-out: MMP-3 Activity (IC50 class)
recombinant human MMP-3, sequence (P08254 100-477): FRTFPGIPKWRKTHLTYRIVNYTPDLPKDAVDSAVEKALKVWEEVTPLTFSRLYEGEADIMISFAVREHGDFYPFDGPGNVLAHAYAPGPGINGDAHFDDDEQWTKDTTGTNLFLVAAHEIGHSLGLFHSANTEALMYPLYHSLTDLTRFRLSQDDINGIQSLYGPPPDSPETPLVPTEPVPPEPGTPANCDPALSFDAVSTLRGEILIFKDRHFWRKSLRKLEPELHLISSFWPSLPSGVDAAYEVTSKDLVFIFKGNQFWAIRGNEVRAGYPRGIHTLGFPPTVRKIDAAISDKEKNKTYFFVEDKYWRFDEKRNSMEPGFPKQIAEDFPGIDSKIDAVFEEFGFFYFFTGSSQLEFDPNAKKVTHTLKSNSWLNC
Procedure: as §1, §2, §3

recombinant human MMP-2 = recombinant human MMP-2 (Homo sapiens (Human), UniProt P08253); experiment: MMP selectivity assay, MMP-2; conditions: Table 2 selectivity profile; read-out: MMP-2 Activity (IC50 class)
recombinant human MMP-2, sequence (P08253 110-660): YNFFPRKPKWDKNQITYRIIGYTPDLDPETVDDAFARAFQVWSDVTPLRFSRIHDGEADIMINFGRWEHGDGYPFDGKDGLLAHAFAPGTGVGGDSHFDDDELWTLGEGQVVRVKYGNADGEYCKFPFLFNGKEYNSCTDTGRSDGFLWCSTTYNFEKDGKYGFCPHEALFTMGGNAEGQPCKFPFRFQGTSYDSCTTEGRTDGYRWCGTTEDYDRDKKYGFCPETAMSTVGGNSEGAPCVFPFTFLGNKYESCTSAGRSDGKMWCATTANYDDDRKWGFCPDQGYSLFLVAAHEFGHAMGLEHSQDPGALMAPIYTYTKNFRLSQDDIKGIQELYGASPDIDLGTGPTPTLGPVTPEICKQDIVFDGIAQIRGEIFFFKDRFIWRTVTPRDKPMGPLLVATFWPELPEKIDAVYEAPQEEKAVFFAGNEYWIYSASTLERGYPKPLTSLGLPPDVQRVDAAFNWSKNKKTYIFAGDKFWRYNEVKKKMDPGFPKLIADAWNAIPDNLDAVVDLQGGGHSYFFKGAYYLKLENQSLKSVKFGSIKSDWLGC
Procedure: as §1, §2, §3

recombinant human MMP-10 = recombinant human MMP-10 (Homo sapiens (Human), UniProt P09238); experiment: MMP selectivity assay, MMP-10; conditions: Table 2 selectivity profile; read-out: MMP-10 Activity (IC50 class)
recombinant human MMP-10, sequence (P09238 99-476): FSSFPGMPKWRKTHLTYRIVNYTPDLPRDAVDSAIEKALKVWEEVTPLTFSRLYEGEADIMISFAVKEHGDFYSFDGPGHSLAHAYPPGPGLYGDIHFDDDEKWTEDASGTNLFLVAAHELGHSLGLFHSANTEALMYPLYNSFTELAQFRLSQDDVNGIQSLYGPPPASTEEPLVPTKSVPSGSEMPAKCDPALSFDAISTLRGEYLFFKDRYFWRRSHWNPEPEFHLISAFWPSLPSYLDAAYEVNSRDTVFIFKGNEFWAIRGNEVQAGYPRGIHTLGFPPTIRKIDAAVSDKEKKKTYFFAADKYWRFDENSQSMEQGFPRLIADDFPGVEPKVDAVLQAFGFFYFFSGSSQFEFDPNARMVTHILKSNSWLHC
Procedure: as §1, §2, §3

recombinant human MMP-14 = recombinant human MMP-14 (Homo sapiens (Human), UniProt P50281); experiment: MMP selectivity assay, MMP-14; conditions: Table 2 selectivity profile; read-out: MMP-14 Activity (IC50 class)
Procedure: as §1, §2, §3

recombinant human MMP-13 = recombinant human MMP-13 (Homo sapiens (Human), UniProt P45452); experiment: MMP selectivity assay, MMP-13; conditions: Table 2 selectivity profile; read-out: MMP-13 Activity (IC50 class)
Procedure: as §1, §2, §3

[2] = readout at 30 minutes, 37° C., pH 7.5, Table 1, read-out: MMP-12 IC50
[3] = Table 2 selectivity profile, read-out: MMP-12 Activity (IC50 class)

recombinant human MMP-12 catalytic domain, sequence (P39900 106-268): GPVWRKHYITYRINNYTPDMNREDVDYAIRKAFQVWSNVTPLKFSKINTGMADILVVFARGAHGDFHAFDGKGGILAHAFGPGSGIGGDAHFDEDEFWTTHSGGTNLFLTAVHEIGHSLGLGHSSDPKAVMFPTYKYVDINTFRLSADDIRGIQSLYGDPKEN

SMILES | IC50 [1, 2] [nM] | IC50 [1, 3] [nM] | IC50 (recombinant human MMP-9) [nM] | IC50 (recombinant human MMP-2) [nM] | IC50 (recombinant human MMP-10) [nM] | further results
NC(=O)c1cc(COc2ccc(Sc3cnccc3C3NC(=O)NC3=O)cc2)ccn1 (stereo not shown) [PC-59] | 100 to 1000 |  |  |  |  | 
O=C1NC(=O)C(c2ccncc2Sc2ccc(OCc3cccc(O)c3)cc2)N1 (stereo not shown) [PC-15] | < 10 |  |  |  |  | 
Cc1cc(COc2ccc(Sc3ccsc3C3NC(=O)NC3=O)cc2)ccn1 (stereo not shown) [TC8] | < 10 | < 10 |  |  |  | IC50 (recombinant human MMP-7): > 1000 nM
O=C1NC(=O)C(c2sccc2Sc2ccc(OCc3ccccc3CO)cc2)N1 (stereo not shown) [TC5] | < 10 | < 10 | > 1000 | > 1000 | > 1000 | IC50 (recombinant human MMP-8): > 1000 nM; IC50 (recombinant human MMP-3): > 1000 nM
O=C1NC(=O)C(c2ccncc2Sc2ccc(OCc3ccccc3CO)cc2)N1 (stereo not shown) [PC-12] | < 10 | < 10 | > 1000 | > 1000 | > 1000 | IC50 (recombinant human MMP-8): > 1000 nM
O=C1NC(=O)C(c2ccncc2Sc2ccc(OCc3cncc(C(=O)O)c3)cc2)N1 (stereo not shown) [PC-24] | > 1000 |  |  |  |  | 
CCC1(c2cnccc2Sc2ccc(OCc3cccc(C)c3)cc2)NC(=O)NC1=O (stereo not shown) [PC-22] | < 10 | < 10 | > 1000 | > 1000 | > 1000 | IC50 (recombinant human MMP-14): > 1000 nM; IC50 (recombinant human MMP-8): > 1000 nM
O=C1NC(=O)C(c2cnccc2Sc2ccc(OCc3cccc(CO)c3)cc2)N1 (stereo not shown) [PC-8] | < 10 | < 10 |  | > 1000 |  | IC50 (recombinant human MMP-13): > 1000 nM; IC50 (recombinant human MMP-3): > 1000 nM
CCC1(c2cnccc2Sc2ccc(OCc3ccnc(C)c3)cc2)NC(=O)NC1=O (stereo not shown) [PC-63] | < 10 |  |  |  |  | 
Cc1cc(COc2ccc(Sc3ccncc3C3NC(=O)NC3=O)c(Cl)c2)ccn1 (stereo not shown) [PC-51] | < 10 | < 10 | > 1000 | > 1000 | > 1000 | IC50 (recombinant human MMP-14): > 1000 nM; IC50 (recombinant human MMP-7): > 1000 nM; IC50 (recombinant human MMP-3): > 1000 nM
Cc1cccc(OCc2ccc(Sc3ccncc3C3NC(=O)NC3=O)cc2)c1 (stereo not shown) [PC-43] | > 1000 |  |  |  |  | 
Cc1cc(COc2ccc(Sc3ncn(C)c3C3NC(=O)NC3=O)cc2)ccn1 (stereo not shown) [OC-13] | < 10 | < 10 | > 1000 |  | > 1000 | IC50 (recombinant human MMP-3): > 1000 nM
O=C1NC(=O)C(c2sccc2Sc2ccc(OCc3ccc(CO)cc3)cc2)N1 (stereo not shown) [TC6] | < 10 |  |  |  |  | 
CCC1(c2ccncc2Sc2ccc(OCc3ccnc(C)c3)cc2)NC(=O)NC1=O (stereo not shown) [PC-64] | < 10 |  |  |  |  | 
O=C1NC(=O)C(c2cnccc2Sc2ccc(OCc3cncc(C(=O)O)c3)cc2)N1 (stereo not shown) [PC-21] | > 1000 |  |  |  |  | 

More lines, main results first:

IC50 [1, 2] [nM] | IC50 [1, 3] [nM] | IC50 (recombinant human MMP-9) [nM] | IC50 (recombinant human MMP-2) [nM] | IC50 (recombinant human MMP-10) [nM] | SMILES | further results
< 10 |  |  |  |  | Cc1cc(COc2ccc(Sc3cnccc3C3NC(=O)NC3=O)cc2)ccn1 (stereo not shown) [PC-18] | 
> 1000 |  |  |  |  | O=C1NC(=O)C(c2cnccc2Sc2ccc(OCc3ccnc(C(=O)O)c3)cc2)N1 (stereo not shown) [PC-20] | 
< 10 | < 10 | > 1000 |  | > 1000 | Cc1cc(COc2ccc(Sc3ccncc3C3NC(=O)NC3=O)c(F)c2)ccn1 (stereo not shown) [PC-50] | IC50 (recombinant human MMP-14): > 1000 nM
< 10 | < 10 | > 1000 | > 1000 | > 1000 | O=C1NC(=O)C(c2sccc2Sc2ccc(OCc3cccc(CO)c3)cc2)N1 (stereo not shown) [TC4] | IC50 (recombinant human MMP-14): > 1000 nM; IC50 (recombinant human MMP-13): > 1000 nM
< 10 | < 10 | > 1000 |  | > 1000 | Cc1cc(COc2ccc(Sc3ncoc3C3NC(=O)NC3=O)cc2)ccn1 (stereo not shown) [OC-7] | IC50 (recombinant human MMP-3): > 1000 nM
> 1000 |  |  |  |  | Cc1cc(COc2ccc(Sc3ocnc3C3NC(=O)NC3=O)cc2)ccn1 (stereo not shown) [OC-11] | 
< 10 |  |  |  |  | O=C1NC(=O)C(c2sccc2Sc2ccc(OCc3cccc(O)c3)cc2)N1 (stereo not shown) [TC7] | 
> 1000 |  |  |  |  | Cc1cc(COc2ccc(Sc3ccncc3C3(C)C(=O)N(C)C(=O)N3C)cc2)ccn1 (stereo not shown) [PC-46] | 
< 10 | < 10 | > 1000 | > 1000 | > 1000 | Cc1cc(COc2ccc(Sc3ccncc3C3NC(=O)NC3=O)cc2C)ccn1 (stereo not shown) [PC-48] | IC50 (recombinant human MMP-8): > 1000 nM; IC50 (recombinant human MMP-3): > 1000 nM
> 1000 |  |  |  |  | NC(=O)c1ccncc1COc1ccc(Sc2ccncc2C2NC(=O)NC2=O)cc1 (stereo not shown) [PC-38] | 
> 1000 |  |  |  |  | Cc1cc(COc2ccc(Sc3ccncc3C3C(=O)N(C)C(=O)N3C)cc2)ccn1 (stereo not shown) [PC-54] | 
< 10 | < 10 | > 1000 | > 1000 |  | O=C1NC(=O)C(c2cnccc2Sc2ccc(OCc3cccc(O)c3)cc2)N1 (stereo not shown) [PC-10] | IC50 (recombinant human MMP-13): > 1000 nM; IC50 (recombinant human MMP-8): > 1000 nM; IC50 (recombinant human MMP-3): > 1000 nM
> 1000 |  |  |  |  | O=C1NC(=O)C(c2ccncc2Sc2ccc(OCc3cncc(CO)c3)cc2)N1 (stereo not shown) [PC-47] | 
< 10 | < 10 | > 1000 | > 1000 | > 1000 | O=C1NC(=O)C(c2ccncc2Sc2ccc(OCc3cccc(CO)c3)cc2)N1 (stereo not shown) [PC-13] | IC50 (recombinant human MMP-13): > 1000 nM; IC50 (recombinant human MMP-8): > 1000 nM
< 10 | < 10 | > 1000 |  | > 1000 | Cc1cc(COc2ccc(Sc3cnn(C)c3C3NC(=O)NC3=O)cc2)ccn1 (stereo not shown) [OC-12] | IC50 (recombinant human MMP-14): > 1000 nM; IC50 (recombinant human MMP-3): > 1000 nM
< 10 |  |  |  |  | O=C1NC(=O)C(c2cnccc2Sc2ccc(OCc3ccnc(CO)c3)cc2)N1 (stereo not shown) [PC-40] | 
< 10 | < 10 | > 1000 | > 1000 | > 1000 | NC(=O)c1cccc(COc2ccc(Sc3ccncc3C3NC(=O)NC3=O)cc2)c1 (stereo not shown) [PC-28] | IC50 (recombinant human MMP-14): > 1000 nM; IC50 (recombinant human MMP-3): > 1000 nM
